In patent US5328830A, “Potassium channel modulators” (Miles Inc., priority 1992, dated 1994):
Where “and” joins values, the source holds several entries; their conditions need not be identical. Equal entries are not always repeated. Structures can show the parent of a compound that is named as a salt. Where two headings read alike, the source gives them in different places.

Legend:
[1] = system: CMPD-I-sensitive, K^+ channel binding site; assay: [^3 H]CMPD-I ligand binding to intact RINm5F cells; set-up: species or system rat; settings: for inhibition of [^3 H]CMPD-I binding: result in words
Protocol: The cells were fed three times a week and passed weekly with 0.25% trypsin/0.02% EDTA (JRH Biosciences, Lenexa, Kans.). For intact cell binding experiments, RINm5F cells were plated onto 60 mm polystyrene petri dishes (Corning) at 5×10^6 cells/dish and grown for 3 days without a change of media. Alternatively, cells were seeded 1×10^6 cells/dish and grown for 7 days with the last feeding two days prior to use. Final cell density was 10-20 ×10^6 cells/dish. […] Intact cell binding was performed with the cells attached to the dishes. Binding was terminated by three successive 3 ml washes of cold (4° C.) buffer. Cells were removed from the dish in 1.6 ml of 0.5 N NaOH, briefly sonicated and radioactivity was quantitated with a liquid scintillation counter using 10 ml cocktail (Ultima Gold, Packard). Statistical analysis to determine KD and BMax was accomplished using nonlinear regression (Enzfitter, Elsevier-Biosoft, Cambridge, UK). IC50 values were determined using a sigmoidal fit of mean percent inhibition versus log of concentration. Petri dishes were removed from the incubator, media was aspirated and the cells were washed (x2) with 3 ml oxygenated (5%CO2 /95%O2) Hanks Buffer (37° C.). Cells were allowed to equilibrate in buffer at least 10 minutes. […] Dishes were incubated at 37° C., in an atmosphere of 5% CO2 /95% for 90 minutes. Bound radioligand was separated from free by aspirating the buffer and washing the cells rapidly (x3) with 3 ml ice cold (4° C.) Hanks Buffer. Cells were then removed and solubilized with the addition of 1.6 ml 0.5N NaOH. Dishes were mounted on an orbit shaker (Lab Line) and rotated at 100-125 rpm for 20-45 minutes until the cells would detach from the plates. […] The solutions were vortexed and an aliquot (10 μ`) from each tube was removed for total protein determination. The remainder (1.59 ml) was transferred to a 20 ml vial with 10 ml Ultima Gold (Packard) scintillation cocktail and mixed until the aqueous phase cleared. Each sample was counted for at least one minute by a liquid scintillation system set for counting tritium. Total protein content of each dish was determined by the method of Bradford with bovine serum albumin used as the standard. […] Percent Inhibition of specific binding by test compounds was determined by calculating: 100-[(Cpm (with Drug)-Nonspecific cpm.div.Specific cpm)×100](Basic program) Free and Bound radioligand was calculated (Basic program) and a saturation curve based on a nonlinear regression fit of the data was used to determine a KD (nM) and Bmax (fmoles/mg total cellular protein) of binding (Enzfitter, Id.). Mean percent inhibition of binding at the concentrations tested for each drug was fit to a sigmoidal function. IC50 values were calculated from the plot of the fraction of maximal inhibition versus Log of concentration (Enzfitter, Id.).

rat aorta = assay: Aortic relaxation of rat aortic rings precontracted with 20 mM KCl; settings: aortae depolarized with 20 mM KCl
Protocol: Male Long-Evans Hooded rats (200-400 g) were sacrificed by acute decapitation. Thoracic aortae were rapidly removed and placed in an oxygenated (100% O2) physiological saline solution (PSS) (pH 7.4) of the following composition in mM: NaCl, 130; KCl, 5.9; MgCl2, 1.2; CaCl2, 0.8; HEPES, 22 and glucose, 11.1. The aortae were trimmed of fat, cut into rings 3 mm in length, mounted in an organ bath containing 10 ml of oxygenated PSS at 37° C. and stretched to a resting tension of 2.0 g. The aortae were depolarized with 20 mM KCl and after contractile response had stabilized, vasodilators were added. The vasorelaxation produced by the drugs was reversed by glyburide (a potent antagonist of ATP-dependent K^+ channels, as described above). Prior to the aortic preparation, the instrument to measure changes in aortic tension was set up and each channel was statically calibrated for linearity using Class S metric weights from 1 to 5 grams, the range consistent with changes observed in this study. This instrument translates isometric changes in tension over time to an electrical signal expressed as a tracing that can be quantified by peak height. […] After a 90 minute equilibration the resting tension was readjusted to the baseline level. […] Percent relaxation of putative K^+ channel agonists was calculated as follows: 100-[(Peak Height (mm) after Drug.div.Initial Peak Height (mm) after 20 mM K^+)×100] […]

| SMILES | inhibition of [^3 H]CMPD-I binding [1] | further results |
| --- | --- | --- |
| [3H]c1cc([3H])c(NC(=C[N+](=O)[O-])NC(C)C(C)(C)C)c(OCC)c1 (single isomer, unassigned) [[^3 H]CMPD-I] |  | Kd ([1]; Scatchard analysis, single binding site (FIG. 3), read-out: apparent KD): 0.7 nM; Kd ([1]; determined by saturation analysis, read-out: KD): 2 nM; Kd ([1]; two additional experiments, read-out: KD): 2.3 nM and 2.4 nM |
| CC[N+](CC)(CC)CC [TEA] | inhibit binding |  |
| COc1ccc(Cl)cc1C(=O)NCCc1ccc(S(=O)(=O)NC(=O)NC2CCCCC2)cc1 [glyburide] | inhibit binding | reversal of vasorelaxation produced by the drugs (rat aorta): reversed |
| Cc1cnc(C(=O)NCCc2ccc(S(=O)(=O)NC(=O)NC3CCCCC3)cc2)cn1 [glypizide] | inhibit binding |  |
| Nc1cc(N2CCCCC2)nc(N)[n+]1OS(=O)(=O)[O-] [minoxidil sulfate] | inhibits binding |  |
| CC(N/C(=N\C#N)Nc1ccncc1)C(C)(C)C (centres unmarked) [pinacidil] | inhibited |  |
| C=C[C@H]1C[N@@]2CC[C@H]1C[C@@H]2[C@@H](O)c1ccnc2ccc(OC)cc12 [quinidine] | inhibit binding |  |
| C=C[C@H]1C[N@@]2CC[C@H]1C[C@H]2[C@H](O)c1ccnc2ccc(OC)cc12 [quinine] | inhibit binding |  |
